The conditions of the data set: same subject; Celebrex initiated and stopped after 3 days.

`Cc1ccc(-c2cc(C(F)(F)F)nn2-c2ccc(S(N)(=O)=O)cc2)cc1` [Celebrex, celecoxib]: the “Side effects leading to discontinuation” value was “drowsiness and GI side effects”.

Values taken from patent US12403091B2, “Delivery system” (SMARTECH TOPICAL, INC., priority 2016, dated 2025).
